Results: paper PMC11940194, “Synthesis, Antiproliferative Activity, and ADME Profiling of Novel Racemic and Optically Pure Aryl-Substituted Purines and Purine Bioisosteres” (Biomolecules, 2025)

Key:
Type in all cases: cell-based, human
[1] = system: pancreatic ductal adenocarcinoma (CFPAC-1) cells; assay: Antiproliferative MTT assay, CFPAC-1; conditions: for IC50: Homo sapiens, CFPAC-1, 72 h, 72 h incubation, MTT, mean ± SD; for SI (CFPAC-1): SI = [IC50 HFF]/[IC50 CFPAC-1]
Method: (§1) The human ATCC tumor cell lines breast adenocarcinoma (MCF7), colorectal carcinoma (HT-29), pancreatic ductal adenocarcinoma (CFPAC-1), hepatocellular carcinoma (HepG2), and normal skin fibroblasts (HFF) derived from ATCC (American Type Culture Collection) were cultured in Dulbecco’s Modified Eagle Medium (DMEM) or Minimum Essential Medium (MEM) supplemented with 10% fetal bovine serum (FBS), 2 mM L-glutamine, 100 U/mL penicillin, and 100 µg/mL streptomycin (Lonza, Basel, Switzerland) in a humidified atmosphere with 5% CO2 at 37 °C. For the experiment, carcinoma cell lines and normal human cell lines were seeded in 96-well microtiter plates at a density of 3000 cells per well and 5000 cells per well, respectively, depending on the doubling time of the specific cell line. The test substances were then added at fivefold, tenfold dilutions (0.01 to 100 µM), freshly prepared in the growth medium on the day of testing, and incubated for a further 72 h. After 72 h of incubation, the growth rate of the cells was determined using the MTT assay according to the manufacturer’s guidelines. […] The IC50 values were calculated from the dose–response curves using linear regression analysis. The experiment was performed in tetraplicates in two individual experiments.
(§2) Newly synthesized compounds were evaluated for their cytotoxic activity in vitro against four human cancer cell lines, including human breast adenocarcinoma (MCF-7), ductal pancreatic adenocarcinoma (CFPAC-1), colorectal carcinoma (HT-29), and hepatocellular carcinoma (HepG2), as well as on non-cancerous skin fibroblasts (HFF-1), to check for non-specific toxicity. Furthermore, 5-Fluorouracil (5-FU) was used as a reference drug. The results are expressed as 50% inhibitory concentration (IC50) values and are listed in Table 2, Table 3, Table 4 and Table 5.

[2] = system: hepatocellular carcinoma (HepG2) cells; assay: Antiproliferative MTT assay, HepG2; conditions: for IC50: Homo sapiens, HepG2, 72 h, 72 h incubation, MTT, mean ± SD
Method: as §1, §2

[3] = system: colorectal carcinoma (HT-29) cells; assay: Antiproliferative MTT assay, HT-29; conditions: Homo sapiens, HT-29, 72 h, 72 h incubation, MTT; mean ± SD
Method: as §1, §2

[4] = system: breast adenocarcinoma (MCF7) cells; assay: Antiproliferative MTT assay, MCF-7; conditions: for IC50: Homo sapiens, MCF7, 72 h incubation, MTT, mean ± SD; for SI (MCF-7): SI = [IC50 HFF]/[IC50 MCF-7]
Method: as §1, §2

[5] = system: normal skin fibroblasts (HFF-1); assay: Cytotoxicity MTT assay, normal skin fibroblasts; conditions: Homo sapiens, HFF-1, 72 h, 72 h incubation, mean ± SD
Method: as §1, §2

Structure (SMILES)	IC50 [1] [µM]	SI (CFPAC-1) [1]	IC50 [2] [µM]	IC50 [3] [µM]	IC50 [4] [µM]	SI (MCF-7) [4]	IC50 [5] [µM]	SI (HepG2) ([2]; SI = [IC50 HFF]/[IC50 HepG2])
OCC(c1ccccc1)n1cc(Cn2ccc3c(Cl)ncnc32)nn1 (centres unmarked) [Compound 41a, 4-Chloro-7-((1-(2-hydroxy-1-phenylethyl)-1H-1,2,3-triazol-4-yl)methyl)-7H-pyrrolo[2,3-d]pyrimidine]	33 ± 4.5	1.9	38 ± 1.8	33 ± 3.2	39 ± 7.1	1.6	62 ± 23.3	–
OC(Cn1cc(Cn2ccc3c(Cl)ncnc32)nn1)c1ccccc1 (centres unmarked) [Compound 41b, 4-Chloro-7-((1-(2-hydroxy-2-phenylethyl)-1H-1,2,3-triazol-4-yl)methyl)-7H-pyrrolo[2,3-d]pyrimidine]	49 ± 11.3	0.9	50 ± 10.2	50 ± 1.3	44 ± 17.4	1.0	44 ± 14.1	–
OCC(c1ccc(F)cc1)n1cc(Cn2ccc3c(Cl)ncnc32)nn1 (centres unmarked) [Compound 42a, 4-Chloro-7-((1-(2-hydroxy-1-(4-fluorophenyl)ethyl)-1H-1,2,3-triazol-4-yl)methyl)-7H-pyrrolo[2,3-d]pyrimidine]	36 ± 2.2	1.4	47 ± 13.5	39 ± 1.9	39 ± 16.9	1.3	51 ± 16.5	–
OC(Cn1cc(Cn2ccc3c(Cl)ncnc32)nn1)c1ccc(F)cc1 (centres unmarked) [Compound 42b, 4-Chloro-7-((1-(2-hydroxy-2-(4-fluorophenyl)ethyl)-1H-1,2,3-triazol-4-yl)methyl)-7H-pyrrolo[2,3-d]pyrimidine]	34 ± 3.2	1.5	38 ± 11	49 ± 14.6	45 ± 5.7	1.1	51 ± 3.6	–
OCC(c1ccc(Cl)cc1)n1cc(Cn2ccc3c(Cl)ncnc32)nn1 (centres unmarked) [Compound 43a, 4-Chloro-7-((1-(2-hydroxy-1-(4-chlorophenyl)ethyl)-1H-1,2,3-triazol-4-yl)methyl)-7H-pyrrolo[2,3-d]pyrimidine]	–	5.1	33 ± 4.2	33 ± 6.1	24 ± 8.8	1.7	41 ± 16.3	–
OC(Cn1cc(Cn2ccc3c(Cl)ncnc32)nn1)c1ccc(Cl)cc1 (centres unmarked) [Compound 43b, 4-Chloro-7-((1-(2-hydroxy-2-(4-chlorophenyl)ethyl)-1H-1,2,3-triazol-4-yl)methyl)-7H-pyrrolo[2,3-d]pyrimidine]	48 ± 4.9	0.7	46 ± 2.2	28 ± 3.8	39 ± 10.1	0.8	32 ± 14.1	–
OCC(c1ccc(F)cc1)n1cc(Cn2cnc3c(Cl)nccc32)nn1 (centres unmarked) [Compound 47a, 4-Chloro-1-((1-(2-hydroxy-1-(4-fluorophenyl)ethyl)-1H-1,2,3-triazol-4-yl)methyl)-1H-imidazo[4,5-c]pyridine]	51 ± 6.5	–	> 100	> 100	63 ± 8.4	–	75 ± 14.2	–
OC(Cn1cc(Cn2cnc3c(Cl)nccc32)nn1)c1ccc(F)cc1 (centres unmarked) [Compound 47b, 4-Chloro-1-((1-(2-hydroxy-2-(4-fluorophenyl)ethyl)-1H-1,2,3-triazol-4-yl)methyl)-1H-imidazo[4,5-c]pyridine]	18 ± 0.8	–	55 ± 8.8	65 ± 12.6	21 ± 2.6	–	18 ± 2.9	0.3
OCC(c1ccc(Cl)cc1)n1cc(Cn2cnc3c(Cl)nccc32)nn1 (centres unmarked) [Compound 48a, 4-Chloro-1-((1-(2-hydroxy-1-(4-chlorophenyl)ethyl)-1H-1,2,3-triazol-4-yl)methyl)-1H-imidazo[4,5-c]pyridine]	> 100	–	> 100	> 100	96 ± 1.8	–	> 100	–
OC(Cn1cc(Cn2cnc3c(Cl)nccc32)nn1)c1ccc(Cl)cc1 (centres unmarked) [Compound 48b, 4-Chloro-1-((1-(2-hydroxy-2-(4-chlorophenyl)ethyl)-1H-1,2,3-triazol-4-yl)methyl)-1H-imidazo[4,5-c]pyridine]	> 100	–	> 100	> 100	> 100	–	> 100	–
